As a reminder, the MIC is the lowest concentration that inhibits growth of the organism.

This note sets out measurements from US5409933A, “Quinoline derivatives and processes for preparing the same” (priority 1993, dated 1995).

Counter-ions that a name gives are not always drawn. Like-named read-outs stand apart in the source and are kept apart here.

Test in all cases: In Vitro Anti-Bacterial Activity Test (MIC, agar dilution)
Common to all, as to type: cell-based

One assay has as its system Escherichia coli DC2. The conditions noted are these: Escherichia coli, DC2, 18 h. In a few lines: (§1)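 Agar-incorporation MIC: Muller-Hinton medium, 10^7 C.F.U./ml inoculum, 18 h incubation at 37° C., growth checked by eye; ciprofloxacin reference.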
For assay [1], the system named is Klebsiella aerogenes 1522E. The conditions noted are these: Klebsiella aerogenes, 1522E, 18 h, Klebsiella aerogenes 1522E; Muller-Hinton agar, 37° C., 18 hours; read-out: MIC. Put shortly:
as §1

For assay [2], the system named is Pseudomonas aeruginosa 1771M. The conditions noted are these: Pseudomonas aeruginosa, 1771M, 18 h, Muller-Hinton agar, 37° C. Put shortly:
as §1

The next assay concerns Salmonella typhimurium. The conditions noted are these: Salmonella enterica; Salmonella typhimurium; Muller-Hinton agar, 37° C., 18 hours; read-out: MIC. Put shortly: as §1
For assay [3], the system named is Streptococcus faecium MD8b. The conditions noted are these: Enterococcus faecium, Muller-Hinton agar, 37° C., 18 hours, read-out: MIC. In a few lines: as §1
For a further assay, the system named is Escherichia coli 1507E. The conditions noted are these: Escherichia coli, 1507E, 18 h, Muller-Hinton agar, 37° C. In a few lines: as §1
The test system of assay [4] is Pseudomonas aeruginosa 9027. The conditions noted are these: Muller-Hinton agar, 37° C., 18 hours, read-out: MIC. Put shortly:
as §1

A further assay deals with Enterobacter cloacae P99. The conditions noted are these: Enterobacter cloacae, P99, 18 h. Put shortly:
(§2)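 MIC was determined by agar dilution on Mueller-Hinton agar. Each strain was inoculated at 10^7 C.F.U./ml, and growth was observed after 18 hours at 37° C, with ciprofloxacin as control agent.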

The test system of assay [5] is Staphylococcus aureus 285. The conditions noted are these: Staphylococcus aureus, 285, 18 h, Staphylococcus aureus 285; Muller-Hinton agar, 37° C., 18 hours; read-out: MIC. Put shortly:
as §1

For assay [6], the system named is Enterobacter cloacae 1321E. Put shortly: as §1
Assay [7] deals with Pseudomonas aeruginosa 1592E. The conditions noted are these: Muller-Hinton agar, 37° C., 18 hours, read-out: MIC. Put shortly: as §1
The subject of a further assay is Escherichia coli TEM. The conditions noted are these: Escherichia coli, 18 h, Muller-Hinton agar, 37° C. In a few lines: as §2
The next assay has as its system Escherichia coli 078. Put shortly:
as §1

In assay [8] the test system is Pseudomonas aeruginosa 1771. The conditions noted are these: Pseudomonas aeruginosa 1771; Muller-Hinton agar, 37° C., 18 hours; read-out: MIC. In a few lines:
as §1

Another assay has as its system Klebsiella oxytoca 1082E. The conditions noted are these: Klebsiella oxytoca 1082E; Muller-Hinton agar, 37° C., 18 hours; read-out: MIC. Put shortly: as §1
The subject of assay [9] is Streptococcus pyogenes 77A. In a few lines:
as §1

Assay [10] has as its system Staphylococcus aureus SG511. The conditions noted are these: Staphylococcus aureus SG511; Muller-Hinton agar, 37° C., 18 hours; read-out: MIC. In a few lines: as §1
Another assay relates to Escherichia coli DC0. The conditions noted are these: Muller-Hinton agar, 37° C., 18 hours, read-out: MIC. In a few lines:
as §1

In assay [11] the test system is Staphylococcus aureus 503. The conditions noted are these: Staphylococcus aureus 503; Muller-Hinton agar, 37° C., 18 hours; read-out: MIC. Put shortly:
as §1

In assay [12] the test system is Streptococcus pyogenes 308A. The conditions noted are these: Muller-Hinton agar, 37° C., 18 hours, read-out: MIC. Put shortly: as §1
[13] abbreviates: Enterobacter cloacae 1321E, Muller-Hinton agar, 37° C., 18 hours, read-out: MIC.
Setting [14] is: Streptococcus pyogenes 77A, Muller-Hinton agar, 37° C., 18 hours, read-out: MIC.

On to `NC1CCN(c2c(F)cc3c(=O)c(C(=O)CC(=O)C(F)(F)F)cn(C4CC4)c3c2Cl)C1` (stereo not drawn) [Example 38, 1-cyclopropyl-6-fluoro-8-chloro-7-(3-aminopyrrolidin-1-yl)-3-(2-trifluoroacetoacetyl)-1,4-dihydro-4-oxoquinoline hydrochloride], for which the MIC is 0.098 µg/mL in the assay on Escherichia coli DC2; 0.098 µg/mL in assay [1]; 0.391 µg/mL in assay [2]; 0.049 µg/mL in the assay on Salmonella typhimurium; 0.781 µg/mL in assay [3]; 0.098 µg/mL in the assay on Escherichia coli 1507E. For the same compound, the MIC in assay [4] came out at 1.56 µg/mL; against Enterobacter cloacae P99 it was 0.098 µg/mL; in assay [5], 0.781 µg/mL; in assay [6] (setting [13]) it was 0.049 µg/mL; in assay [7], 0.781 µg/mL; in the assay with Escherichia coli TEM, 0.195 µg/mL. Further, the MIC in the assay on Escherichia coli 078 (Escherichia coli, 078, 18 h) was found to be 0.195 µg/mL; in assay [8], 1.56 µg/mL; in the assay with Klebsiella oxytoca 1082E, 0.025 µg/mL; in [9] (Streptococcus pyogenes, 77A, 18 h) it was 0.781 µg/mL; in [10] it was 0.391 µg/mL; with Escherichia coli DC0, 0.195 µg/mL. Also, the minimum inhibitory concentration (MIC) came to 0.391 µg/mL in assay [11] and 1.56 µg/mL in [12].

For the compound `CN[C@@H]1CCN(c2c(F)cc3c(=O)c(C(=O)C[N+](=O)[O-])cn(C4CC4)c3c2Cl)C1` [Example 61, 1-cyclopropyl-6-fluoro-8-chloro-7-(3-3R-methylaminopyrrolidin-1-yl)-3-(2-nitroacetyl)-1,4-dihydro-4-oxoquinoline hydrochloride], the minimal inhibitory concentration (MIC) amounted to 0.013 µg/mL in the assay with Escherichia coli DC2; 0.013 µg/mL in assay [1]; 0.098 µg/mL in [2]; 0.004 µg/mL with Salmonella typhimurium; 0.098 µg/mL in assay [3]; 0.007 µg/mL with Escherichia coli 1507E. In addition, the MIC in assay [4] came out at 0.195 µg/mL; against Enterobacter cloacae P99, 0.007 µg/mL; in assay [5], 0.025 µg/mL; in assay [6] (Enterobacter cloacae, 1321E, 18 h), 0.007 µg/mL; in assay [7] it was 0.195 µg/mL; against Escherichia coli TEM it was 0.007 µg/mL. For the same compound, the MIC was < 0.002 µg/mL in the assay on Escherichia coli 078 (Escherichia coli 078, Muller-Hinton agar, 37° C., 18 hours, read-out: MIC); 0.195 µg/mL in assay [8]; 0.004 µg/mL in the assay on Klebsiella oxytoca 1082E; 0.098 µg/mL in assay [9] (setting [14]); 0.013 µg/mL in [10]; 0.049 µg/mL with Escherichia coli DC0. Besides, the values for the MIC in [11] and in [12] were 0.025 µg/mL and 0.391 µg/mL, respectively.

`CNCC1=CCN(c2c(F)cc3c(=O)c(C(=O)CS(C)(=O)=O)cn(C4CC4)c3c2Cl)C1` [Example 46, 1-cyclopropyl-6-fluoro-8-chloro-7-(3-methylaminomethyl-2,5-dihydropyrrol-1-yl)-3-(2-methanesulfonylacetyl)-1,4-dihydro-4-oxoquinoline hydrochloride]: the MIC came out at 0.098 µg/mL with Escherichia coli DC2; 0.013 µg/mL in [1]; 0.195 µg/mL in assay [2]; 0.195 µg/mL in the assay with Salmonella typhimurium; 0.195 µg/mL in assay [3]; 0.098 µg/mL against Escherichia coli 1507E. The MIC was found to be 1.56 µg/mL in [4]; 0.098 µg/mL in the assay on Enterobacter cloacae P99; 0.049 µg/mL in assay [5]; 0.049 µg/mL in assay [6] (setting [13]); 0.781 µg/mL in [7]; 0.049 µg/mL against Escherichia coli TEM. Moreover, the MIC in the assay with Escherichia coli 078 (Escherichia coli, 078, 18 h) worked out at 0.025 µg/mL; in assay [8], 1.56 µg/mL; in the assay with Klebsiella oxytoca 1082E, 0.013 µg/mL; in assay [9] (setting [14]), 0.391 µg/mL; in [10] it was 0.098 µg/mL; with Escherichia coli DC0, 0.391 µg/mL. Also, the MIC in [11] was found to be 0.049 µg/mL; in [12], 1.56 µg/mL.
